Values quoted from earlier work, collected in patent US20060193908A1, “Extended release formulations of poorly soluble antibiotics” (priority 2004, published 2006).

Settings: USP 27/NF 22 listing

For `CC[C@H]1OC(=O)[C@H](C)[C@@H](O[C@H]2C[C@@](C)(OC)[C@@H](O)[C@H](C)O2)[C@H](C)[C@@H](O[C@@H]2O[C@H](C)C[C@H](N(C)C)[C@H]2O)[C@](C)(OC)C[C@@H](C)C(=O)[C@H](C)[C@@H](O)[C@]1(C)O` [clarithromycin, Clarithromycin], the “solubility in water (USP descriptive term)” value is listed as “practically insoluble in water”.
